Assay results: patent publication US11000604B2, “Reagent for site-selective bioconjugation of proteins or antibodies” (Research Foundation of the City University of New York, priority 2017, dated 2021)

Tests used:
Type in all cases: physicochemical
[1] = Reaction of PODS with model thiol Boc-L-cysteine (with TCEP); settings: pH 7.5, TCEP
Protocol: In order to study the reactivity of PODS with thiols, Boc-L-cysteine was used as a model thiol in conjunction with the mild reducing agent tris(2-carboxyethyl)phosphine (TCEP), whose role was the reduction of any latent cystine species in solution (FIG. 2).
(§1) The reaction between PODS and Boc-L-cysteine was quantitative in less than 2 minutes at pH 7.5. See FIG. 3A, FIG. 3B and FIG. 3C. In a move toward a model closer to proteins and peptides, a tripeptide containing a central cysteine—glutathione—was reacted with PODS as well. Again, the conjugation reaction reached completion before the first measurement could be acquired (<3 min at pH 7.5).

[2] = Reaction of PODS with glutathione; settings: pH 7.5
Protocol: as §1

[3] = Stability of PODS solutions in DMSO; settings: solution in DMSO, room temperature
Protocol: All intermediates were obtained in >95% purity using minimal equipment and simple procedures without chromatographic purifications. The methyl thioether 1 was obtained quantitatively via the methylation of the thiol with methyl iodide; unfortunately, we were not able to replace the use of the toxic methyl iodide with any safer reagent. The coupling between 1 and the carboxylic acid-bearing PEG chain was performed using EDCI as a coupling agent. Overnight reaction at room temperature led to the complete consumption of the starting material but also the formation of degradation products. It was possible to separate 2 from the two unidentified impurities by precipitating it with a mixture of ethyl acetate and cyclohexane. The oxidation of 2 was performed using the peracid mCPBA. This lead to the formation of the methylsulfone 3 with a yield of 90%. Finally, PODS was obtained from 3 after the quantitative deprotection of the terminal amine using a solution of trifluoroacetic acid in dichloromethane. Solutions of PODS in DMSO were stable at room temperature and have been kept at room temperature for 5 months without any noticeable signs of degradation.

In the case of `CS(=O)(=O)c1nnc(-c2ccc(NC(=O)CCC(=O)NCCCOCCOCCOCCCN)cc2)o1` [PODS, N^1-(3-(2-(2-(3-Aminopropoxy)ethoxy)ethoxy)propyl)-N′-(4-(5-(methylsulfonyl)-1,3,4 oxadiazol-2-yl)phenyl)succinamide], the “time to quantitative reaction with Boc-L-cysteine” value [1] is reported as “less than 2 minutes”, the “time to completion of conjugation reaction with glutathione” value [2] is reported as less than 3 min and the “time kept without any noticeable signs of degradation” value [3] is reported as no less than 5 months.
